From patent US4835185A, “Immunomodulator for improving commercial performance of domestic animals” (Iowa State University Research Foundation, Inc., priority 1987, dated 1989)
Read-outs that look alike come from different tables or passages of the source.

Tests used:
[1] = Laying hens: egg production and egg yolk cholesterol; type: in vivo, laying hens (chickens)
Experimental: Laying hens (69 weeks of age) were randomly assigned to either a control diet or a diet containing 0.2 wt % KIC (Na). For the next 28 days feed consumption was recorded and eggs collected. Eggs were weighed and analyzed for egg yolk cholesterol. The feed composition is shown in Table C and the results in Table D. The total protein was about 18% on a dry matter basis, and the amount of leucine was about 9% of the protein. The control diet was the same except for the omission of the KIC.

lymphocytes = assay: Study of Immune Function: lymphocyte blastogenesis, sheep (experiments 1 and 2); type: cell-based, lambs (sheep)
Experimental: A study was conducted to determine if KIC administration can alter white blood cell function, specifically T lymphocyte function, in growing sheep and cattle. Eighteen medium-framed crossbred male lambs were used in experiment 1. Lambs were randomly assigned to either a control diet (n=10) or a diet supplemented with 1% KIC (n=8). Animals were fed ad libitum in individual cages. At 100 and 108 days of treatment, 50-ml blood samples were collected for lymphocyte and neutrophil function tests.
In experiment 2, 19 intact crossbred male lambs were randomly assigned to either a saline treatment group (n=9) or a KIC treatment group (n=10). Control lambs were injected with 50 ml of a saline solution, and KIC treated lambs were injected with 50 ml of a 5% solution of KIC (sodium salt) daily (~2.5 g KIC/day). All injections were made intraperitoneally in the right posterior abdominal region after disinfection of the area. At day 60 and day 66 of treatment, blood was collected for lymphocyte and neutrophil function tests.
Sheep in experiments 1 and 2 were fed diets based on a mixture of 48% corn, 5% molasses, 20% alfalfa meal, 0.8% limestone, 0.6% salt-mineral-vitamin mix and ~25% of a protein supplement (either soybean meal, corn gluten meal, or corn gluten feed). The diets were isonitrogenous and analyzed to be ~20% crude protein and 89% dry matter. The KIC diet consisted of the basal diet to which was added 1% calcium-KIC, whereas the control diet was the basal diet plus 0.25% calcium carbonate.
Blood was collected by jugular venapuncture into acid-citrate-dextrose anticoagulant. Lymphocytes and neutrophils were isolated, and lymphocyte blastogenesis and neutrophil function evaluated. KIC was obtained from SOBAC, Paris, France. […] Each experiment was statistically analyzed by analysis of variance. In sheep experiments, individual animals were the experimental units, whereas pen means were analyzed in the cattle experiment.
^1 Background (BKG), phytohemagglutininstimulated (PHA), concanavalin
Astimulated (ConA), and pokeweed mitogenstimulated (PWM) blastogenesis
were determined by measuring the incorporation ^3 H thymidine into

[2] = Rumen degradation of KIC (nylon bag technique); parameters: species or system ruminants (rumen)
Text: KIC pellets were made by mixing zein, ethanol, KIC, limestone, bentonite, and water in a ratio of […]. This mixture was extruded through a die of 15 mm directly into a vat of liquid nitrogen. The shattered pellets were spread out and allowed to air-dry for 2 days. The pellets were coated with zein (2% w/w) by spraying with a 30% zein solution made in 80% ethanol. The pellets again were air-dryed. Control pellets were made similarly to the KIC pellets except that the mixture was zein, limestone, ethanol, bentonite, and water in a ratio of 12:12:7.5:2.7:1. When KIC pellets were placed in the rumen (nylon bag technique), […] of the KIC added was present in the bags after 24 hr of rumen fermentation. It was estimated that uncoated KIC was 95% degraded in the rumen.
(§1) Therefore, an attempt was made to protect KIC from ruminal degradation. KIC pellets, resistant to rumen degradation, were made by mixing zein, ethanol, KIC, limestone, bentonite and water in a ratio of 8.3:7.4:5.2:3:2:1. This mixture was extruded through a die of 15 mm directly into a vat of liquid nitrogen. The shattered pellets were spread out and allowed to air-dry for two days. The dried pellets were coated with zein (2% w/w) by spraying with a 30% zein solution made in 80% ethanol. The pellets again were air-dried. Control pellets were made similar to the KIC pellets except that the mixture was zein, limestone, ethanol, bentonite and water in a ratio of 12:12:7.5:2.7:1. When KIC pellets were placed in the rumen (nylon bag technique), 45% of the KIC added was present in the bags after 36 hr of rumen digestion.

[3] = Feedlot steers: performance and carcass; type: in vivo, steers (cattle)
Text: (§2) Seventy-two medium-frame steers, with an average weight of 578 lbs., were allotted to 12 pens of 6 animals each. A common basal diet was fed ad libitum to all cattle. This consisted of 48.9% cracked corn, 24.4% ground corn cobs, 17.8% expeller Soybean meal, 7.0% molasses (liquid), 1.3% limestone, 0.25% dicalcium phosphate, 2% salt, 0.02% trace mineral premix, and 0.1% vitamin A premix for the first 58 days of the experiment, and was changed to 54.3% cracked corn and 12.8% expeller soybean meal for the remaining 103 days of the experiment. Three pens were assigned to each treatment. The treatments consisted of four levels of Ca-KIC in a pelleted supplement: 0%, 0.02%, 0.07%, and 0.20% of the basal diet (0.05% control pellets, 0.04% KIC pellets, 0.14% KIC pellets, and 0.40% KIC pellets). The pellets were preweighted and top-dressed on the basal diet twice daily. After 58 days, the cattle on the 0.20% KIC were removed from the experiment. The cattle were not implanted with a growth promotant nor were ionophores included in the diet. The cattle were placed in the feedlot and fed a growing ration for 5 weeks prior to the start of the experiment. The cattle were weighed on 2 consecutive days at the beginning and end of the experiment, and every 14 days during the trial. The cattle were sold through a commercial beef processing plant when they were approaised by visual examination to grade Choice. Loin eye area and fat thickness over the loin were measured on each carcass. Quality and yield grades, and percent kidney, heart, and lepvic (KHP) fat were estimated by the federal graders.
as §1
KIC was obtained from SOBAC, Paris, France. Zein was purchased from Freeman Industries, Tuckahoe, N.Y. Each experiment was statistically analyzed by analysis of variance with three pens per treatment.

Plasma Cortisol = assay: Feedlot steers: plasma cortisol; type: in vivo, steers (cattle); conditions: 150 days
Text: as §2, with “The cattle were placed in the feedlot and fed a growing ration for 5 weeks prior to the start of the experiment. The cattle were weighed on 2 consecutive days at the beginning and end of the experiment, and every 14 days during the trial. The cattle were sold through a commercial beef processing plant when they were approaised by visual examination to grade Choice.” left out, “Quality and yield grades, and percent kidney, heart, and lepvic (KHP) fat were estimated by the federal graders.” left out
KIC was obtained from SOBAC, Paris, France. Zein was purchased from Freeman Industries, Tuckahoe, N.Y. Each experiment was statistically analyzed by analysis of variance with three pens per treatment. […]

[4] = Feedlot steers: death, sickness, condemned livers; type: in vivo, steers (cattle)
Text: as §2, with “The cattle were sold through a commercial beef processing plant when they were approaised by visual examination to grade Choice.” left out, “Quality and yield grades, and percent kidney, heart, and lepvic (KHP) fat were estimated by the federal graders.” left out

## CC(C)CC(=O)C(=O)O [KIC, alpha-ketoisocaproate]
[1]; 0.2 wt % KIC (Na), 28 days (control 1.105)
  Av. Eggs: 1.233 kg./hen
[1]; 0.2 wt % KIC (Na), 28 days (control 17.7)
  Average No. Eggs/Hen: 19.5
[1]; 0.2 wt % KIC (Na), 28 days (control 109)
  Feed Average: 109 gms/hen/day
[1]; 0.2 wt % KIC (Na), 28 days (control 1068)
  Avg. yolk Cholesterol: 996 mg/100 gms
[1]; vs control
  Av. Eggs (kg./hen), % Change: +11.1%
  Average No. Eggs/Hen, % Change: +10.2%
  Avg. yolk Cholesterol, % Change: -7%
  Feed Average, % Change: 0%
lymphocytes; Exp. 1, oral uncoated KIC 1% (control 466), p<.008
  BKG: background blastogenesis: 852 Counts/min per 2 × 10^5 cells
lymphocytes; Exp. 1, oral uncoated KIC 1% (control 6100), p<.003
  PHA: phytohemagglutinin-stimulated blastogenesis: 16800 Counts/min per 2 × 10^5 cells
lymphocytes; Exp. 1, oral uncoated KIC 1% (control 19400), p<.77
  PWM: pokeweed mitogen-stimulated blastogenesis: 17300 Counts/min per 2 × 10^5 cells
lymphocytes; Exp. 1, oral uncoated KIC 1% (control 41100), p<.81
  ConA: concanavalin A-stimulated blastogenesis: 44700 Counts/min per 2 × 10^5 cells
lymphocytes; Exp. 2, IP injected KIC (saline 752), p<.10
  BKG: background blastogenesis: 947 Counts/min per 2 × 10^5 cells
lymphocytes; Exp. 2, IP injected KIC (saline 8500), p<.09
  PHA: phytohemagglutinin-stimulated blastogenesis: 12600 Counts/min per 2 × 10^5 cells
lymphocytes; Exp. 2, IP injected KIC (saline 21600), p<.72
  PWM: pokeweed mitogen-stimulated blastogenesis: 29400 Counts/min per 2 × 10^5 cells
lymphocytes; Exp. 2, IP injected KIC (saline 31200), p<.87
  ConA: concanavalin A-stimulated blastogenesis: 33500 Counts/min per 2 × 10^5 cells
lymphocytes; experiment 1, sheep, oral 1% KIC
  increase of PHA stimulation: 280%
lymphocytes; experiment 2, sheep, IP
  increase of PHA stimulation: 150%
[2]; "as much as", unprotected, read-out: KIC that may be lost by rumen destruction
  degraded: 90 to 95%
[2]; estimated, Example IV, read-out: uncoated KIC degraded in the rumen
  degraded: 95%
[2]; preliminary experiments, Example VI, read-out: uncoated KIC degraded in the rumen
  degraded: 95%
[3]; 161-day trial, 0.02% KIC, NS
  Feed conversion improvement: 8%
[3]; 161-day trial, 0.02% KIC, p<0.01
  daily gain increase: 14%
[3]; 161-day trial, 0.07% KIC, (NX)
  daily gain increase: 7%
[3]; 161-day trial, 0.07% KIC, NS
  Feed conversion improvement: 6%
[3]; 58 days, 0.07% dietary KIC (0%: 2.80)
  Daily gain: 3.12 lb.
[3]; 58 days, 0.07% dietary KIC (0%: 5.7)
  Feed/Gain: 5.2
[3]; 58 days, 0.07% dietary KIC (0%: 16.0)
  Daily intake: 16.3 lb DM/day
[3]; 58 days, 0.07% dietary KIC (0%: 756)
  Ending wt.: 770 lb.
[3]; 58 days, 0.20% dietary KIC (0%: 2.80)
  Daily gain: 3.19 lb.
[3]; 58 days, 0.20% dietary KIC (0%: 5.7)
  Feed/Gain: 5.2
[3]; 58 days, 0.20% dietary KIC (0%: 16.0)
  Daily intake: 16.3 lb DM/day
[3]; 58 days, 0.20% dietary KIC (0%: 756)
  Ending wt.: 779 lb.
[3]; 58 days, % dietary KIC printed 0.2 (0%: 2.80), * p<.1
  Daily gain: 3.36 lb.
[3]; 58 days, % dietary KIC printed 0.2 (0%: 5.7), ** p<.05
  Feed/Gain: 5.0
[3]; 58 days, % dietary KIC printed 0.2 (0%: 16.0)
  Daily intake: 16.8 lb DM/day
[3]; 58 days, % dietary KIC printed 0.2 (0%: 756)
  Ending wt.: 786 lb.
[3]; 161 days, 0.02% dietary KIC (0%: 2.66), *** p<.01
  Daily gain: 3.03 lb.
[3]; 161 days, 0.02% dietary KIC (0%: 8.0)
  Feed/Gain: 7.4
[3]; 161 days, 0.02% dietary KIC (0%: 21.2)
  Daily intake: 22.6 lb DM/day
[3]; 161 days, 0.02% dietary KIC (0%: 1016)
  Ending wt.: 1068 lb.
[3]; 161 days, 0.07% dietary KIC (0%: 2.66)
  Daily gain: 2.85 lb.
[3]; 161 days, 0.07% dietary KIC (0%: 8.0)
  Feed/Gain: 7.5
[3]; 161 days, 0.07% dietary KIC (0%: 21.2)
  Daily intake: 21.6 lb DM/day
[3]; 161 days, 0.07% dietary KIC (0%: 1016)
  Ending wt.: 1035 lb.
[3]; first 58 days, 0.02% KIC, p<0.05
  Feed conversion improvement: 13%
[3]; first 58 days, 0.02% KIC, p<0.07
  daily gain increase: 20%
[3]; first 58 days, 0.07% KIC, NS
  daily gain increase: 11%
[3]; first 58 days, 0.07% KIC, p<0.17
  Feed conversion improvement: 9%
[3]; first 58 days, 0.20% KIC, p<0.11
  Feed conversion improvement: 10%
[3]; first 58 days, 0.20% KIC, p<0.18
  daily gain increase: 14%
[3]; long-term trial, summary
  Feed conversion improvement: up to 8%
  daily gain increase: up to 14%
Plasma Cortisol; .02% dietary KIC (0%: 4.08)
  Plasma Cortisol: 3.74 µg/dL
Plasma Cortisol; .07% dietary KIC (0%: 4.08)
  Plasma Cortisol: 3.2 µg/dL
[4]; KIC-treated groups (control: one died, one treated)
  animals that died or were treated for sickness: no animals
[4]; bovine, in vivo
  condemned liver: one
